Test results from patent US20260200885A1, “BENZOPYRONE COMPOUNDS AS WELL AS PREPARATION METHOD THEREFOR AND USE THEREOF” (CHENGDU DI’AO JIUHONG PHARMACEUTICAL FACTORY, priority 2022, published 2026).
Where two headings read alike, the source gives them in different places.

Tests used:
POLRMT = target: T1, POLRMT (Homo sapiens, UniProt O00411); assay: Compound selectivity by real-time fluorescent quantitative PCR in A549 cells: genes regulated by POLRMT; assay type: cell-based; details: 72 h, qPCR ΔΔCt, significance by T-Test
T1 construct: endogenous in cells; host or cells: A549
T1 sequence (O00411 42-1230): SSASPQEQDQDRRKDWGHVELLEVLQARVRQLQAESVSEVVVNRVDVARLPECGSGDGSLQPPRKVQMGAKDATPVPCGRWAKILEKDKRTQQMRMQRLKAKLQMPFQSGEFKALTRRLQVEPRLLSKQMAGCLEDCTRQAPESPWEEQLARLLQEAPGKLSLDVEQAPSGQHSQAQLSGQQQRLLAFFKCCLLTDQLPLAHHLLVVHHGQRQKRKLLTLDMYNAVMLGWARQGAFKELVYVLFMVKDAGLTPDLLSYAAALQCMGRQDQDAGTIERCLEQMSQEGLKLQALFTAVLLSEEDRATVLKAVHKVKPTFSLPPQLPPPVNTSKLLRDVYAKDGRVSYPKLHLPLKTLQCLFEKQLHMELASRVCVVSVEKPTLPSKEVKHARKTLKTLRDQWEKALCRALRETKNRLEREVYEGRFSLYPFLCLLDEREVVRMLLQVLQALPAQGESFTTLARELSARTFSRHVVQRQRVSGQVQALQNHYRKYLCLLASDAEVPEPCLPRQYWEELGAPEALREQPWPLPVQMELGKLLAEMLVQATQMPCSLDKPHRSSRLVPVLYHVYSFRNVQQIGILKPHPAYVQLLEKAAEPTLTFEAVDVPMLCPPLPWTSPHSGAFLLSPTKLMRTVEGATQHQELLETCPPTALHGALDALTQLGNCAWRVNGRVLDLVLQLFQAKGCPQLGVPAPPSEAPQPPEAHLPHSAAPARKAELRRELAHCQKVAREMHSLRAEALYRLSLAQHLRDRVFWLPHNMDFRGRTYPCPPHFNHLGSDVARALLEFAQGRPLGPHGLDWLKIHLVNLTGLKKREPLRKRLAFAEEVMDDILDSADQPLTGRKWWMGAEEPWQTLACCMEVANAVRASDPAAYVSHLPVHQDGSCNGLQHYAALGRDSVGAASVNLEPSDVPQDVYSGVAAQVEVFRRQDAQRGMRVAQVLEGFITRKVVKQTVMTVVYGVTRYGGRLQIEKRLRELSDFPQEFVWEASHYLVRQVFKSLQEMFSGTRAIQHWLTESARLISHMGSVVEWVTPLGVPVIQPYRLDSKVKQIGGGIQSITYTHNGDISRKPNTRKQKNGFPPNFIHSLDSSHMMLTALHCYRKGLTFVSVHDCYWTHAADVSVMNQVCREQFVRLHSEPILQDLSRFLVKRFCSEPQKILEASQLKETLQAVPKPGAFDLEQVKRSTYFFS
Description: (§1) Tumor cells A549 were plated at an appropriate density and incubated overnight. The cells were treated with compounds or DMSO for 72 h, and total cellular RNA was extracted according to the instructions of TaqMan™ Fast Advanced Cells-to-CT™ Kit (Invitrogen #A35377). Briefly, the cells were washed with PBS twice. Supernatants were discarded, and 50 μL/well of lysis buffer was added. The cells were incubated at room temperature for 5 min. Then, 5 μL of stop buffer was added. The mixture was left to stand for 2 min and then placed on ice in preparation for reverse transcription and extraction of cDNA. QPCR was carried out according to the requirements of TaqMan® Fast Advanced Master Mix (Invitrogen). Eukaryotes have three different nuclear RNA polymerases, namely RNA polymerase I (RNA pol I), RNA polymerase II (RNA pol II) and RNA polymerase III (RNA pol III). To eliminate the effect of the compounds on the inhibition of the activity of other RNA polymerases, we selected 18S rRNA, 28S rRNA; β-actin; 5S rRNA; ND1, CYTB and COX1 transcriptionally regulated by RNA Pol I, II, III and POLRMT. Whether the mRNA levels of these genes were inhibited was detected. The qPCR results were analyzed by the ΔΔCt method and statistically analyzed by Graphpad8.0. The significant differences were statistically analyzed by T-Test.

[1] = tested on: RNA polymerase I (RNA pol I); assay: Compound selectivity by real-time fluorescent quantitative PCR in A549 cells: genes regulated by RNA pol I; assay type: cell-based; details: for Expression of genes regulated by RNA pol I (18S, 28S): 72 h, qPCR ΔΔCt, significance by T-Test
Description: as §1

[2] = tested on: RNA polymerase II (RNA pol II); assay: Compound selectivity by real-time fluorescent quantitative PCR in A549 cells: gene regulated by RNA pol II; assay type: cell-based; details: for Expression of genes regulated by RNA pol II (β-actin): 72 h, qPCR ΔΔCt, significance by T-Test
Description: as §1

[3] = tested on: RNA polymerase III (RNA pol III); assay: Compound selectivity by real-time fluorescent quantitative PCR in A549 cells: gene regulated by RNA pol III; assay type: cell-based; details: for Expression of genes regulated by RNA pol III (5S): 72 h, qPCR ΔΔCt, significance by T-Test
Description: as §1

[4] = Pharmacokinetic assay in CD1 mice; assay type: in vivo; details: for F: bioavailability; for maximum plasma concentration Cmax compared with IMT1B / plasma exposure AUC compared with IMT1B: comparison in words; for half-life: Table I-3, read-out: T1/2 (h) for oral administration (converted)
Description: pharmacokinetic assay of compounds was carried out in CD1 mice aged 6-8 weeks with IMT1B as a positive control. The compounds and the positive control were dissolved in 30% aqueous hydroxypropyl-β-cyclodextrin solution containing 25% PEG400 and administered via intravenous injection (1 mg/kg) or intragastric administration (5 mg/kg). Blood samples were collected at 0.033, 0.083, 0.25, 0.5, 1, 2, 4, 8, 24 h and 0.083, 0.25, 0.5, 1, 2, 4, 8, 24 h respectively after administration.
The concentration of the compounds in plasma samples was analyzed using the LC-MS/MS method. Pharmacokinetic calculations were performed using WinNonlin (Phoenix™, version 8.3) or other similar software. The following pharmacokinetic parameters were calculated from the plasma concentration vs. time data: for intravenous administration: T1/2, C0, AUClast, AUCinf, MRTinf, Cl, Vss, regression coefficient, etc.; for oral administration: T1/2, Cmax, Tmax, AUClast, AUCinf, bioavailability, etc. The above parameter data were statistically calculated and described using descriptive statistics such as mean value and standard deviation.

A2780 cells = assay: Determination of cell activity (CellTiter-Glo Luminescent Cell Viability Assay); assay type: cell-based; details: A2780 cells, 7 days treatment, CellTiter-Glo, read-out: IC50
Description: To examine the effect of compounds on cell viability, ATP was directly quantified using the CellTiter-Glo Luminescent Cell Viability Assay (Promega) to determine the number of viable cells.
Cell density was selected based on optimal signal intensity and growth curve for the inoculation of A2780 cells. The cells were incubated at 37° C. and 5% C02 overnight. Cells were treated with blank group, DMSO group and compound group, respectively, at 37° C. and 5% C02 for 7 days. The prepared solutions were added to cell wells according to the instructions of CellTiter-Glo (Promega), and shaken at a speed of 400 g for 2 min. Then, the solutions were centrifuged at 1000 g for 2 min and incubated at rest for 30 min to ensure a complete reaction. […] readings were taken using a multi-label microplate reader (Perkin Elmer) to calculate IC50 values.

MOLM-13-luc tumor cells = assay: In vivo pharmacodynamic test, MOLM-13-luc orthotopic mouse model of leukemia
Description: The efficacy of compounds was evaluated using an orthotopic mouse model of leukemia. […] After the cell confluence reached 80%-90%, the cells were subcultured into separate flasks. The tumor cells in the logarithmic growth phase were used for the inoculation of tumors in vivo. Approximately 7 days after the inoculation of the tumor cells, according to the body weights of the animals and optical signal intensity at tumor sites, the animals were randomly divided into 4 groups, namely solvent control group [5% TPGS in PH 8 buffer (50 mM potassium dihydrogen phosphate buffer), BID, intragastric administration], IMT1B (50 mpk, BID, intragastric administration), A1-1-5 (25 mpk, BID, intragastric administration) and A1-1-5 (50 mpk, BID, intragastric administration), with 10 animals in each group. Tumor growth was monitored, and behavioral changes in the animals were also monitored.
During the experiment, all the animals were weighed twice a week. The percentage of body weight change (BW change, %) was calculated using the following formula: BW change=(BW Day X/BW Day 0)×100, where BW Day X is the body weight of the animals on the day of administration, and BW Day 0 is the body weight of the animals on the day of grouping.
Mice were imaged twice a week according to their status using the small animal living imaging system IVIS Lumina III (Perkin Elmer). The signal intensity of the bioluminescence imaging (BLI, unit: photons/s) at tumor cell inoculation sites in mice was monitored, which served as the main indicator for evaluating tumor growth and the efficacy of drugs. The specific operation procedures were as follows.
After the mice were intraperitoneally injected with D-luciferin (manufactured by Perkin Elmer, 15 mg/mL solution, injected at […] according to the body weight of experimental animals), the animals were subjected to inhalation anesthesia using 1%-2% isoflurane. Approximately 10 minutes after the injection of D-luciferin, the animals were imaged using IVIS Lumina III. The imaging results were analyzed and processed using the Living Image software (Perkin Elmer), and the optical signal intensity in the ROI (regions of interest) of the whole body of each animal was calculated. […] The administration and imaging were continued for the animals in other groups. At the endpoint of the experiment, the median survival times of all groups throughout the experiment were calculated, and the curves were plotted.

[5] = main pharmacokinetic parameters, Table I-4
[6] = at the same dose (50 mpk, BID, intragastric)
[7] = mouse, plasma, po, 5 mg/kg, main pharmacokinetic parameters, Table I-4
[8] = mouse, plasma, po, 5 mg/kg, main pharmacokinetic parameters, Table I-4, read-out: Cmax
[9] = mouse, plasma, po, intragastric administration 5 mg/kg

| SMILES | Expression of genes regulated by POLRMT (ND1, CYTB, COX1) (POLRMT) | Expression of genes regulated by RNA pol I (18S, 28S) [1] | Expression of genes regulated by RNA pol II (β-actin) [2] | Expression of genes regulated by RNA pol III (5S) [3] | F ([4]; Table I-4) | T1/2 [4, 5] | maximum plasma concentration Cmax compared with IMT1B [4] | plasma exposure AUC compared with IMT1B [4] | AUC(0-inf) [4, 7] | AUC(0-t) [4, 7] | Cmax [4, 8] | half-life [4, 9] | IC50 (A2780 cells; Homo sapiens, 168 h) | also measured |
| --- | --- | --- | --- | --- | --- | --- | --- | --- | --- | --- | --- | --- | --- | --- |
| C[C@@H](Oc1ccc2c(-c3ccc(F)cc3Cl)cc(=O)oc2c1)C(=O)N1CCC[C@H](C(=O)O)C1 [IMT1B, reference compound] | (++) ((++) represents P < 0.01) | (-) ((-) represents P≥ 0.05) | (-) ((-) represents P≥ 0.05) | (-) ((-) represents P≥ 0.05) | 80.236% | 2.445 h | – | – | – | – | – | – | – | inhibition of the activity of RNA polymerase I ([1]; qPCR, in words): do not inhibit; inhibition of the activity of RNA polymerase II ([2]; qPCR, in words): do not inhibit; inhibition of the activity of RNA polymerase III ([3]; qPCR, in words): do not inhibit; T1/2 (h) for oral administration ([4]; intragastric administration 5 mg/kg, Table I-3): 2.445 h; AUCInf [4, 5]: 24.420076 µg·h/mL; AUClast [4, 5]: 24.389836 µg·h/mL; Cmax [4, 5]: 7300 ng/mL; IC50 (A2780 cells): 20 to 100 nM |
| C[C@@H](Oc1ccc2c(-c3ccc(F)cc3Cl)cc(=O)oc2c1)C(=O)c1cccc(C(=O)O)c1 [Compound A1-1-5] | (++) ((++) represents P < 0.01) | (-) ((-) represents P≥ 0.05) | (-) ((-) represents P≥ 0.05) | (-) ((-) represents P≥ 0.05) | 85.846% | 3.158 h | significantly superior to IMT1B | significantly superior to IMT1B | 179 µg·h/mL | 178 µg·h/mL | 44100 ng/mL | 3.16 h | 20 to 100 nM | efficacy at a relatively low dose (MOLM-13-luc tumor cells; MOLM13 orthotopic hematological tumor model, BID intragastric): effective at a relatively low dose; tumor inhibitory effect (BLI imaging) (MOLM-13-luc tumor cells; MOLM13 orthotopic hematological tumor model, BID intragastric, 25 and 50 mpk): good tumor inhibitory effect; median survival time compared with IMT1B (MOLM-13-luc tumor cells; [6]): significantly superior to IMT1B; tumor inhibition compared with IMT1B (MOLM-13-luc tumor cells; [6]): significantly superior to IMT1B |
| CC(Oc1ccc2c(-c3ccc(F)cc3Cl)cc(=O)oc2c1)C(=O)c1cc(F)cc(C(=O)O)c1 (stereo not drawn) [Compound A-1-2-1-93] | – | – | – | – | 102.733% | 11.706 h | significantly superior to IMT1B | significantly superior to IMT1B | 211 µg·h/mL | 155 µg·h/mL | 8960 ng/mL | 11.7 h | 20 to 100 nM | – |
| CC(Oc1ccc2c(-c3ccc(F)cc3Cl)cc(=O)oc2c1)C(=O)c1cccc(S(N)(=O)=O)c1 (stereo not drawn) [Compound A-1-2-1-40] | – | – | – | – | – | – | – | – | – | – | – | 3.57 h | 20 to 100 nM | – |
